According to PubChem BioAssay (NCI):
Several values for one entry are separate records, joined by “and”; a condition that tells them apart may be missing. Equal values may be shown once.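 Where inhibition never reached the appropriate level, the endpoint shown equals the highest concentration tested. Otherwise, values were interpolated linearly from a five-concentration, 48-hour dose response in 96-well plates. GI50 marks 50% less growth. Definition used: TGI = concentration required for complete inhibition of growth.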

Experiments:
Assay in all cases: growth of human tumour cells (NCI), 48 h
[1] = tested on: 786-0 renal
[2] = tested on: SF-539 CNS
[3] = tested on: OVCAR-3 ovarian
[4] = tested on: SK-OV-3 ovarian
[5] = tested on: NCI-H226 lung
[6] = tested on: RXF 393 renal
[7] = tested on: HCT-15 colon
[8] = tested on: ACHN renal
[9] = tested on: LOX IMVI melanoma
[10] = tested on: SK-MEL-28 melanoma

SMILES	TGI [1]	TGI [2]	TGI [3]	TGI [4]	TGI [5]	TGI [6]	TGI [7]	TGI [8]	TGI [9]	TGI [10]	GI50 [1]	GI50 [2]	GI50 [3]	GI50 [4]	GI50 [5]	GI50 [6]	GI50 [7]	GI50 [8]	GI50 [9]	GI50 [10]
O=C1OC(c2ccco2)=N/C1=C\c1ccc(Cl)c(Cl)c1	> 100 µM	> 100 µM	> 100 µM	> 100 µM	> 100 µM	> 100 µM	> 100 µM	> 100 µM	> 100 µM	> 100 µM	–	–	–	–	–	–	–	–	–	–
Nc1c(C(=O)Nc2ccccc2)sc2nc3c(cc12)CCCCCC3	3.93 µM	0.741 µM	1.07 µM	3 µM	12.7 µM	2.18 µM	14 µM	14 µM	> 49.4 µM	21.8 µM	0.551 µM	0.231 µM	0.319 µM	0.465 µM	0.652 µM	0.432 µM	0.314 µM	0.887 µM	0.772 µM	1.1 µM
CC1=CC=NN2C(=O)[C@H](C)C2C1 (stereo not given in full)	> 100 µM	> 100 µM	> 100 µM	> 100 µM	> 100 µM	> 100 µM	> 100 µM	> 100 µM	> 100 µM	> 100 µM	–	–	–	–	–	–	–	–	–	–
CCN1C(=O)C/C(=C\C(C)=O)Nc2ccccc21	> 100 µM	> 100 µM	> 100 µM	> 100 µM	> 100 µM	> 100 µM	> 100 µM	> 100 µM	> 100 µM	> 100 µM	–	–	–	–	–	–	> 100 µM	> 100 µM	–	–
C=C1C(=O)O[C@@H]2C[C@@H]1CC[C@]1(C)O[C@H]1CC[C@@]1(C)O[C@@H]1CC[C@@]2(C)O	89.9 µM	> 100 µM	51.9 µM	> 100 µM	86.2 µM	> 100 µM	> 100 µM	75.2 µM	80.8 µM	43.1 µM	27.7 µM	35.1 µM	16.2 µM	> 100 µM	26.7 µM	55.9 µM	29.2 µM	25.1 µM	28.7 µM	17.5 µM
CCC1=C(C)/C(=C/c2[nH]c(C)c(C(=O)CCCCC(=O)OC)c2C)N=C1c1ccc[nH]1	32 µM	27.1 µM	18.5 µM	> 80.6 µM	51.3 µM	38.6 µM	66.8 µM	31.1 µM	> 32.3 µM	25.8 µM	15.1 µM	13.2 µM	3.64 µM	34.6 µM	17.6 µM	11.9 µM	15.4 µM	15.3 µM	2.89 µM	7.25 µM
CCOC(=N)CC(=O)Nc1ccc(Cl)cc1	> 100 µM	> 100 µM	> 100 µM	> 100 µM	> 100 µM	> 100 µM	> 100 µM	> 100 µM	> 100 µM	> 100 µM	–	–	–	–	–	–	–	–	–	–
CC(C)(C)NNC(=O)/C(=C/c1ccc(Oc2ccc(Cl)c(Cl)c2)cc1)NC(=O)c1ccccc1	> 100 µM	> 100 µM	> 100 µM	> 100 µM	> 100 µM	> 100 µM	> 100 µM	> 100 µM	40.1 µM	> 100 µM	–	–	–	–	–	–	–	–	–	–
C=C1C(=O)O[C@H]2[C@H]1CC/C(COC(=O)C(=O)c1c[nH]c3ccccc13)=C\CC[C@@]1(C)O[C@@H]21	3.72 µM	3.76 µM	4.63 µM	24.6 µM	3.89 µM	3.61 µM	4.02 µM	6.1 µM	3.04 µM	4.23 µM	1.84 µM	1.75 µM	1.86 µM	11.9 µM	1.98 µM	2.01 µM	1.75 µM	2.13 µM	1.48 µM	2.02 µM
CC(C)(C)[Si](C)(C)OCC1CCC(n2cnc3c(NC(=O)c4ccccc4)ncnc32)O1 (stereo not given)	31.3 µM	32.9 µM	28 µM	44.9 µM	34.6 µM	37.8 µM	39.2 µM	40.3 µM	37.1 µM	27.9 µM	–	–	–	–	–	–	–	–	–	–
COc1cc(/C=C(/C)[N+](=O)[O-])ccc1O	3.26 µM and 3.51 µM	4 µM and 3.68 µM	3.46 µM and 3.17 µM	20.4 µM and 16.9 µM	6.96 µM and 14.2 µM	3.24 µM and 3.31 µM	7.4 µM and 6.21 µM	5.44 µM and 4 µM	3.27 µM and 3 µM	3.87 µM and 3.88 µM	1.79 µM and 1.94 µM	2 µM and 1.81 µM	1.96 µM and 1.61 µM	8.15 µM and 4.78 µM	2.58 µM and 4.07 µM	1.72 µM and 1.8 µM	2.34 µM and 2 µM	2.38 µM and 1.9 µM	1.59 µM and 1.58 µM	1.81 µM and 1.87 µM
CCCN1C(=O)C/C(=C\C(C)=O)Nc2ccccc21	> 100 µM	> 100 µM	> 100 µM	> 100 µM	> 100 µM	> 100 µM	> 100 µM	> 100 µM	> 100 µM	> 100 µM	–	–	–	–	–	–	–	–	–	–
O=C1NC(=O)C(C(=O)C(=O)Nc2ccc(Br)cc2)C(=O)N1	> 100 µM	> 100 µM	> 100 µM	> 100 µM	> 100 µM	> 100 µM	> 100 µM	> 100 µM	> 100 µM	> 100 µM	–	–	–	–	–	–	–	–	–	–
COC(=O)c1c[nH]cc1CCc1c[nH]cc1C(=O)OC	> 100 µM	> 100 µM	> 100 µM	> 100 µM	> 100 µM	> 100 µM	> 100 µM	> 100 µM	> 100 µM	> 100 µM	–	–	–	–	–	–	–	–	–	–
COc1cc(Nc2cnc3cc(C(F)(F)F)ccc3n2)cc(OC)c1OC	> 100 µM	> 100 µM	> 100 µM	> 100 µM	> 100 µM	> 100 µM	> 100 µM	> 100 µM	> 100 µM	> 100 µM	–	–	–	–	–	–	–	–	–	–
COc1ccc(C(=O)/C=C/c2ccc(O)c(O)c2F)c(OC)c1	31.3 µM and 17.1 µM	15.7 µM and 28.5 µM	–	47 µM and 90.3 µM	37.1 µM and 46.3 µM	26.4 µM and 32.1 µM	13.8 µM and 29.3 µM	25.6 µM and > 100 µM	20.3 µM and 20.4 µM	33.4 µM and 30.7 µM	1.88 µM	4.5 µM	2.63 µM	17.6 µM	–	11.6 µM	0.444 µM	5.49 µM	4.95 µM	11.6 µM
